Test results published in patent publication US20200147243A1, “LIGAND COMPOUND OF ALPHA7 NICOTINIC ACETYLCHOLINE RECEPTOR AND APPLICATION THEREOF” (BEIJING NORMAL UNIVERSITY, priority 2017, published 2020).
Where two headings read alike, the source gives them in different places.

Assays:
[1] = biological target: T1, hERG potassium channel (Homo sapiens, UniProt Q12809); assay: in vitro
[2] = biological target: α7 nAChRs (Rattus norvegicus, UniProt Q05941); assay: In vitro competitive binding experiment with [125I] α-bgt as radioactive standard; parameters: species or system SD rats; conditions: 0.4 nM [125I] α-bgt, Cheng-Prusoff, mean of three measurements ± SD; read-out: Ki (nM), in vitro binding affinity to α7 nAChRs
Sequence of α7 nAChRs (Q05941 23-502): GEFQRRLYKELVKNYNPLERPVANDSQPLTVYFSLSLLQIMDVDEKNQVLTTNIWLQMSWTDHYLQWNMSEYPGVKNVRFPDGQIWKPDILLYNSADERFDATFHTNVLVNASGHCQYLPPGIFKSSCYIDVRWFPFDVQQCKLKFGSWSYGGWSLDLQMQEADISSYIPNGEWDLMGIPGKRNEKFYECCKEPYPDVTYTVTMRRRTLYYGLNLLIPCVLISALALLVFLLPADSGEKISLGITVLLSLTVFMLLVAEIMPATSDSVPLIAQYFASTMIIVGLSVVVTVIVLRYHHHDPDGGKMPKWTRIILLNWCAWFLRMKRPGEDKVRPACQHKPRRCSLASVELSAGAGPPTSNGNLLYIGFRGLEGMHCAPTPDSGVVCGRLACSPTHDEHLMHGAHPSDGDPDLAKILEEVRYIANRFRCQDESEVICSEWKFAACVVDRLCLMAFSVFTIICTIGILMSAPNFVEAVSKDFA

[3] = biological target: T1, hERG potassium channel; assay: In vitro hERG potassium channel inhibition experiment (conventional patch clamp, HEK293 cell line stably expressing hERG)
[4] = biological target: T1, hERG potassium channel
[5] = Measurement of half lethal dosage LD50 (tail vein injection); type: in vivo, Kunming mice; conditions: both sexes, Kunming, mouse, in vivo, intravenous, mice, tail vein injection
Text: (§1) There are many methods for calculating LD50, among which the weighted probit method created by Bliss and then developed by later researchers was the most accurate and rigorous, and was the standard LD50 calculation method recognized by researchers. This calculation method will be used herein to solve the LD50 value of the compound to be measured to the mice.

[6] = system: Kunming mice; assay: as above; type: in vivo; conditions: for Death Rate (%): tail vein
Text: as §1

[7] = 5 min after the administration, cited from earlier work
[8] = 5 min after administration; cited from earlier work
[9] = IC50 (μM), hERG potassium current, Table 7 and text, n=3
[10] = hERG Potassium Channel IC50 (nM), Table 8

T1 sequence (Q12809 whole entry): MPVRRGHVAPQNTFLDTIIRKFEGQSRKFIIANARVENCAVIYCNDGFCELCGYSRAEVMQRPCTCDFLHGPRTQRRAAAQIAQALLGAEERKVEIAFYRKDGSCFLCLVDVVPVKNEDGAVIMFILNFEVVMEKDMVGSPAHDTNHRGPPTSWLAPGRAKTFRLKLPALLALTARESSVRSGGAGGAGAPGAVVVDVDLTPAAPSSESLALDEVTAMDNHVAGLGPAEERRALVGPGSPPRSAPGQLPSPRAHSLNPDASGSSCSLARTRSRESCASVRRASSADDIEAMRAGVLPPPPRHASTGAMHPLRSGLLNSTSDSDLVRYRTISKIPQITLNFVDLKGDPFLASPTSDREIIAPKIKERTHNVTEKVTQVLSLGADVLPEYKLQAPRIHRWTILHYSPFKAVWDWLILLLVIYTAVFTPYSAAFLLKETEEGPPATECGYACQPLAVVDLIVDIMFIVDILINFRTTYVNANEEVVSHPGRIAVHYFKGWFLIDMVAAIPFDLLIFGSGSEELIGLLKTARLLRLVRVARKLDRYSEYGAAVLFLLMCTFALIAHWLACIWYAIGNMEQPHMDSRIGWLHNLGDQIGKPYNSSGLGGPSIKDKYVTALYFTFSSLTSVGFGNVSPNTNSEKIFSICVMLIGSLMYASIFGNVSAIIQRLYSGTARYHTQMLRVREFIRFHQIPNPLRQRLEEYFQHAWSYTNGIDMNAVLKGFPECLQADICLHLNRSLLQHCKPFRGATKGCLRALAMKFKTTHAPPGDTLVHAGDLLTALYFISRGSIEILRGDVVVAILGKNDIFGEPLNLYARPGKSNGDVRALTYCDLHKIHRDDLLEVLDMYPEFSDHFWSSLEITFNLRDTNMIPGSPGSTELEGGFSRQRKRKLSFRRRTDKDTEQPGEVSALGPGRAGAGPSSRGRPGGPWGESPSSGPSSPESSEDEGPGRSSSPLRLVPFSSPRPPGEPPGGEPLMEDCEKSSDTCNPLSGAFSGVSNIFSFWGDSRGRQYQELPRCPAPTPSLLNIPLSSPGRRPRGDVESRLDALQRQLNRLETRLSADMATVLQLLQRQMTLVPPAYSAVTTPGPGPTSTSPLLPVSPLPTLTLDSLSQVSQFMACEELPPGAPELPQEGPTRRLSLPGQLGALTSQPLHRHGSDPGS

**Q.** Which inhibition at 5 min, 0.001 µM [1] does the source give for `COc1cc(N)c(Cl)cc1C(=O)NC1CCN(CCCOc2ccc(F)cc2)CC1OC` (stereo not shown) [Cisapride, reference compound] here?
**A.** 8 ± 2%

**Q.** And the inhibition at 5 min, 0.01 µM [1]?
**A.** 44 ± 1%

**Q.** And the inhibition at 5 min, 0.1 µM [1]?
**A.** 84 ± 1%

**Q.** For `Fc1ccc(-c2ccc3oc(N4CCN5CCC4CC5)nc3n2)cn1` [Compound I-10], which Ki [2] is on record?
**A.** 378 ± 119 nM

**Q.** For `Nc1ccc2c(c1)C(=O)c1cc(N3CCN4CCC3CC4)ccc1-2` [II-5], which inhibition at 5 min, 0.4 µM [1] is on record?
**A.** 19 ± 1%

**Q.** And the inhibition at 5 min, 2 µM [1]?
**A.** 42 ± 1%

**Q.** What about the inhibition at 5 min, 10 µM [1] of the same compound?
**A.** 79 ± 2%

**Q.** What about the inhibition at 5 min, 50 µM [1] of the same compound?
**A.** 98%

**Q.** What about the IC50 [3, 9] of the same compound?
**A.** 2.5 ± 0.15 µM

**Q.** What about the IC50 [3, 10] of the same compound?
**A.** 2.5 ± 0.15 µM

**Q.** Which “IC50(hERG)/IC50(α7 nAChR)” value [4] does the source give for `O=C1c2cc(F)ccc2-c2ccc(N3CCN4CCC3CC4)cc21` [II-6] here?
**A.** 22

**Q.** And the inhibition at 5 min, 0.4 µM [1]?
**A.** 42 ± 2%

**Q.** What about the inhibition at 5 min, 2 µM [1] of the same compound?
**A.** 80 ± 1%

**Q.** What about the inhibition at 5 min, 10 µM [1] of the same compound?
**A.** 96 ± 1%

**Q.** What about the inhibition at 5 min, 50 µM [1] of the same compound?
**A.** 100%

**Q.** What about the IC50 [3, 9] of the same compound?
**A.** 0.46 ± 0.055 µM

**Q.** And the IC50 [3, 10]?
**A.** 0.46 ± 0.055 µM

**Q.** Which inhibition at 5 min, 0.4 µM [1] does the source give for `Nc1cccc2c1C(=O)c1cc(N3CCN4CCC3CC4)ccc1-2` [II-14] here?
**A.** 6 ± 1%

**Q.** And the inhibition at 5 min, 2 µM [1]?
**A.** 20 ± 2%

**Q.** What about the inhibition at 5 min, 10 µM [1] of the same compound?
**A.** 25 ± 3%

**Q.** What about the inhibition at 5 min, 50 µM [1] of the same compound?
**A.** 53 ± 4%

**Q.** And the IC50 [3, 9]?
**A.** 49.7 ± 15.9 µM

**Q.** And the IC50 [3, 10]?
**A.** 49.7 ± 15.9 µM

**Q.** With `O=C1c2cc(N3CCN4CCC3CC4)ccc2-c2cccc(F)c21` [II-15] as the compound, how does the “IC50(hERG)/IC50(α7 nAChR)” value [4] read?
**A.** 74

**Q.** What about the inhibition at 5 min, 0.4 µM [1] of the same compound?
**A.** 45 ± 1%

**Q.** What about the inhibition at 5 min, 2 µM [1] of the same compound?
**A.** 82 ± 1%

**Q.** What about the inhibition at 5 min, 10 µM [1] of the same compound?
**A.** 97 ± 1%

**Q.** And the inhibition at 5 min, 50 µM [1]?
**A.** 98 ± 1%

**Q.** And the LD50 at 14 days ([5]; weighted probit method, read-out: half lethal dosage LD50)?
**A.** 53.7 mg/kg

**Q.** What about the LD50 at 14 days ([5]; read-out: 95% confidence limit of LD50) of the same compound?
**A.** 50.4 to 57.2 mg/kg

**Q.** And the “Observation Record” value ([6]; 43.74 mg/kg)?
**A.** Symptoms of convulsion, and trembling

**Q.** What about the “Number of Death” value ([6]; 43.74 mg/kg, 10 mice) of the same compound?
**A.** 1

**Q.** What about the “Death Rate (%)” value ([6]; 43.74 mg/kg, 14 days observation) of the same compound?
**A.** 10%

**Q.** And the “Number of Death” value ([6]; 48.6 mg/kg, 9 mice)?
**A.** 2

**Q.** And the “Death Rate (%)” value ([6]; 48.6 mg/kg, 14 days observation)?
**A.** 22%

**Q.** What about the “Observation Record” value ([6]; 54 mg/kg) of the same compound?
**A.** Died after convulsion of 20 min; survivors

**Q.** And the “Number of Death” value ([6]; 54 mg/kg, 10 mice)?
**A.** 6

**Q.** What about the “Death Rate (%)” value ([6]; 54 mg/kg, 14 days observation) of the same compound?
**A.** 60%

**Q.** What about the “Observation Record” value ([6]; 60 mg/kg) of the same compound?
**A.** Died after convulsion of 6-10 min; survivors

**Q.** And the “Number of Death” value ([6]; 60 mg/kg, 10 mice)?
**A.** 7

**Q.** And the “Death Rate (%)” value ([6]; 60 mg/kg, 14 days observation)?
**A.** 70%

**Q.** What about the “Observation Record” value ([6]; 64.8 mg/kg) of the same compound?
**A.** Died after convulsion of about 10 s: survivors

**Q.** What about the “Number of Death” value ([6]; 64.8 mg/kg, 10 mice) of the same compound?
**A.** 9

**Q.** What about the “Death Rate (%)” value ([6]; 64.8 mg/kg, 14 days observation) of the same compound?
**A.** 90%

**Q.** And the “weights of surviving mice in the observation period” value ([6]; 14 days observation)?
**A.** increased normally

**Q.** What about the “inappetence after the administration, then recovered to normal” value ([6]; all administrated mice) of the same compound?
**A.** ≤ 1 h

**Q.** What about the “tissues and organs of dissected dead mice” value ([6]; all dose groups) of the same compound?
**A.** no abnormality was found

**Q.** What about the IC50 [3, 9] of the same compound?
**A.** 0.46 ± 0.011 µM

**Q.** What about the IC50 [3, 10] of the same compound?
**A.** 0.46 ± 0.011 µM

**Q.** For `CN1CC2CN(c3ccc(-c4ccc5c(ccn5CCF)c4)nc3)CC2C1` (stereo not shown) [III-19], which Ki [2] is on record?
**A.** 456 ± 152 nM

**Q.** For `CN1CC2CN(c3ccc(-c4ccc(OCCF)cc4)nn3)CC2C1` (stereo not shown) [III-24], which Ki [2] is on record?
**A.** 445 ± 31.5 nM

**Q.** For `O=S1(=O)c2cc(N3CCN4CCC3CC4)ccc2-c2cccc([18F])c21` [[^18F] ASEM], which “uptake value in corpus striatum (reported)” value ([7]; corpus striatum) is on record?
**A.** 6.0 % ID/g

**Q.** And the “uptake value in cortex (reported)” value ([7]; cortex)?
**A.** 7.2 % ID/g

**Q.** What about the “uptake value in hippocampus (reported)” value ([7]; hippocampus) of the same compound?
**A.** 5.0 % ID/g

**Q.** What about the “highest brain uptake value (reported)” value [8] of the same compound?
**A.** 7.5 % ID/g
